Patent US9751885B2, “Cyclopropanamine compound and use thereof” (Takeda Pharmaceutical Company Limited, priority 2012, dated 2017)
pIC50: −log10 of the molar value. Counter-ions that a name gives are not always drawn.

How the values were obtained:
MAO-A enzyme = MAO-A enzyme (Homo sapiens (Human), UniProt P21397); assay: Measurement of MAO-A inhibitory activity (MAO-Glo Assay); assay type: biochemical
MAO-B enzyme = MAO-B enzyme (Homo sapiens (Human), UniProt P27338); assay: Measurement of MAO-B inhibitory activity (MAO-Glo Assay); settings: read-out: MAO-B IC50 value;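 further: luminescence read-out, compound preincubated 10 min with enzyme then reacted 60 min at room temperature, inhibition relative to enzyme reaction without compound, blank lacking enzyme and compound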
human LSD1(172-833) = human LSD1(172-833) (Homo sapiens (Human), UniProt O60341); assay: Measurement of LSD1 inhibitory activity (time-resolved fluorescence, biotin-histone H3 mono methylated K4 peptide); assay type: biochemical
Protocol: When the turbidity reached 500 Klett units, the culture temperature was changed to 16° C., IPTG (Isopropyl β-D-1-thiogalactopyranoside) having a final concentration of 0.5 mM was added to induce expression, and the cells were cultured further for 14 hr. The culture medium was centrifuged at 6,000 g for 15 min, and Escherichia coil pellets were recovered.
Using Branson ultrasonic disintegrator, the suspension was disrupted by ultrasonication for 3 min, and centrifuged at 33,000 g for 60 min, and the supernatant was recovered. […] It was concentrated to 10 mL with AmiconUltra (NWCO 30K) (Millipore Japan), and purified with HiLoad 26/60 Superdex 200 pg column (GE Healthcare) equilibrated with Buffer A to give hLSD1 purified product (8.4 mg). The protein concentration of hLSD1 was measured by BCA Protein Assay Kit (Thermo Fisher Scientific K.K.) using bovine serum albumin as the standard.
(5) Measurement of LSD1 Inhibitory Activity
After reaction at room temperature for 5 min, 1 mM 2-PCPA solution was added 5 μL to terminate the reaction. A detection solution ([…] potassium fluoride, 0.1% BSA) containing europium-labeled anti-histone H3 antibody (Wako Pure Chemical Industries, Ltd.) and Streptavidin-XL665 (Cisbio) was further added by 5 μL, and the mixture was left standing for 60 min.

MAO-A enzyme, sequence (P21397 whole entry): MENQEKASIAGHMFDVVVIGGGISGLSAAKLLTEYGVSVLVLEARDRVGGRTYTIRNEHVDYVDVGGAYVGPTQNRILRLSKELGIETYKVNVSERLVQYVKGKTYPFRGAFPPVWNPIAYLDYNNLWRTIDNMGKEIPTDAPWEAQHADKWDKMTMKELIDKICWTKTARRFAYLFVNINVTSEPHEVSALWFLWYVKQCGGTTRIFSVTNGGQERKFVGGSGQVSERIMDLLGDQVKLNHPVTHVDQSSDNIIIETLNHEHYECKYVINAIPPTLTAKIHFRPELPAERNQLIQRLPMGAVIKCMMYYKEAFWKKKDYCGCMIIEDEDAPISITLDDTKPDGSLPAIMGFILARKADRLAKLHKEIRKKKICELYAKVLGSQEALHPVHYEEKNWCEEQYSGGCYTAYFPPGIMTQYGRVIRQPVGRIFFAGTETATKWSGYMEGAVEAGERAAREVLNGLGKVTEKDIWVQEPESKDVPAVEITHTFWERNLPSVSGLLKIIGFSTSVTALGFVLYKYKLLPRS
MAO-B enzyme, sequence (P27338 whole entry): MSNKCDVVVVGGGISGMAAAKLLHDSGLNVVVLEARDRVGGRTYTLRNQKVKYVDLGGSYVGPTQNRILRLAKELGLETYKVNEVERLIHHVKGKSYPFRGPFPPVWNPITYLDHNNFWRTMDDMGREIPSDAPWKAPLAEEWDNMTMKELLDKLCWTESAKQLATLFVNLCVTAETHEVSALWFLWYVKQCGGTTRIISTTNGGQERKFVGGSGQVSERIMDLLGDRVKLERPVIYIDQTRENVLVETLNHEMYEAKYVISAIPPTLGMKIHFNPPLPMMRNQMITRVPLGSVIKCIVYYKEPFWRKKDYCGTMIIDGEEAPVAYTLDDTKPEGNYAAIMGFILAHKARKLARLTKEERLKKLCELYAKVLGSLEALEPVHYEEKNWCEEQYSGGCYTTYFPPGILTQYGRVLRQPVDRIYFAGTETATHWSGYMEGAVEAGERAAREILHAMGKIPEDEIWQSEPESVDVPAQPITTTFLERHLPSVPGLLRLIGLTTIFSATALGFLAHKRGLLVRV

SMILES | pIC50 (MAO-A enzyme) | pIC50 (MAO-B enzyme) | pIC50 (human LSD1(172-833))
N[C@@H]1C[C@H]1c1ccc(C(=O)Nc2ccccc2)cc1 (relative stereo) [Example 1, 4-(trans-2-aminocyclopropyl)-N-phenylbenzamide hydrochloride] | 7.00 | 5.49 | > 7.00
N[C@@H]1C[C@H]1c1ccc(C(=O)NCc2ccccc2)cc1 (relative stereo) [Example 2, 4-(trans-2-aminocyclopropyl)-N-benzylbenzamide hydrochloride] | 7.00 | < 5.00 | > 7.00
CN(C(=O)c1ccc([C@@H]2C[C@H]2N)cc1)c1ccccc1 (relative stereo) [Example 3, 4-(trans-2-aminocyclopropyl)-N-methyl-N-phenylbenzamide hydrochloride] | 6.60 | < 5.00 | > 7.00
N[C@@H]1C[C@H]1c1ccc(C(=O)Nc2cccc(C(F)(F)F)c2)cc1 (relative stereo) [Example 4, 4-(trans-2-aminocyclopropyl)-N-(3-(trifluoromethyl)phenyl)benzamide hydrochloride] | 6.72 | 6.27 | > 7.00
N[C@@H]1C[C@H]1c1ccc(C(=O)NC2CCCCC2)cc1 (relative stereo) [Example 6, 4-(trans-2-aminocyclopropyl)-N-cyclohexylbenzamide hydrochloride] | 6.49 | 5.38 | > 7.00
N[C@@H]1C[C@H]1c1ccc(C(=O)N2CCCCC2)cc1 (relative stereo) [Example 7, (4-(trans-2-aminocyclopropyl)phenyl)(piperidin-1-yl)methanone hydrochloride] | 6.10 | < 5.00 | > 7.00
O=C(Nc1ccccc1)c1ccc([C@@H]2C[C@H]2NCC2CC2)cc1 (relative stereo) [Example 8, 4-(trans-2-((cyclopropylmethyl)amino)cyclopropyl)-N-phenylbenzamide hydrochloride] | 5.08 | 5.34 | > 7.00
CN(Cc1ccccc1)C(=O)c1ccc([C@@H]2C[C@H]2N)cc1 (relative stereo) [Example 9, 4-(trans-2-aminocyclopropyl)-N-benzyl-N-methylbenzamide hydrochloride] | 6.92 | < 5.00 | > 7.00
CN(Cc1ccccc1)C(=O)c1ccc([C@@H]2C[C@H]2NCC2CC2)cc1 (relative stereo) [Example 10, N-benzyl-4-(trans-2-((cyclopropylmethyl)amino)cyclopropyl)-N-methylbenzamide hydrochloride] | 5.15 | < 5.00 | > 7.00
O=C(Nc1ccccc1)c1cccc([C@@H]2C[C@H]2NCC2CC2)c1 (relative stereo) [Example 13, 3-(trans-2-((cyclopropylmethyl)amino)cyclopropyl)-N-phenylbenzamide hydrochloride] | < 5.00 | < 5.00 | > 7.00
O=C(NCc1ccccc1)c1cccc([C@@H]2C[C@H]2NCC2CC2)c1 (relative stereo) [Example 14, N-benzyl-3-(trans-2-((cyclopropylmethyl)amino)cyclopropyl)benzamide hydrochloride] | 5.09 | < 5.00 | > 7.00
Cc1cnc(CNC(=O)c2ccc([C@@H]3C[C@H]3NCC3CC3)cc2)cn1 (relative stereo) [Example 15, 4-(trans-2-((cyclopropylmethyl)amino)cyclopropyl)-N-((5-methylpyrazin-2-yl)methyl)benzamide bis(trifluoroacetate)] | < 5.00 | < 5.00 | > 7.00
O=C(NCc1ccccn1)c1ccc([C@@H]2C[C@H]2NCC2CC2)cc1 (relative stereo) [Example 16, 4-(trans-2-((cyclopropylmethyl)amino)cyclopropyl)-N-(pyridin-2-ylmethyl)benzamide bis(trifluoroacetate)] | < 5.00 | < 5.00 | > 7.00
O=C(NCc1ccncc1)c1ccc([C@@H]2C[C@H]2NCC2CC2)cc1 (relative stereo) [Example 17, 4-(trans-2-((cyclopropylmethyl)amino)cyclopropyl)-N-(pyridin-4-ylmethyl)benzamide bis(trifluoroacetate)] | < 5.00 | < 5.00 | > 7.00
O=C(NCc1cccnc1)c1ccc([C@@H]2C[C@H]2NCC2CC2)cc1 (relative stereo) [Example 18, 4-(trans-2-((cyclopropylmethyl)amino)cyclopropyl)-N-(pyridin-3-ylmethyl)benzamide bis(trifluoroacetate)] | < 5.00 | < 5.00 | > 7.00
O=C(NCCc1ccccn1)c1ccc([C@@H]2C[C@H]2NCC2CC2)cc1 (relative stereo) [Example 19, 4-(trans-2-((cyclopropylmethyl)amino)cyclopropyl)-N-(2-(pyridin-2-yl)ethyl)benzamide bis(trifluoroacetate)] | < 5.00 | < 5.00 | > 7.00
O=C(c1ccc([C@@H]2C[C@H]2NCC2CC2)cc1)N1Cc2cccnc2C1 (relative stereo) [Example 20, (4-(trans-2-((cyclopropylmethyl)amino)cyclopropyl)phenyl)(5,7-dihydro-6H-pyrrolo[3,4-b]pyridin-6-yl)methanone bis(trifluoroacetate)] | < 5.00 | < 5.00 | > 7.00
O=C(NCc1cccc(Oc2ccccc2)c1)c1ccc([C@@H]2C[C@H]2NCC2CC2)cc1 (relative stereo) [Example 21, 4-(trans-2-((cyclopropylmethyl)amino)cyclopropyl)-N-(3-phenoxybenzyl)benzamide trifluoroacetate] | 5.74 | < 5.00 | > 7.00
N#CCN(Cc1ccccc1)C(=O)c1ccc([C@@H]2C[C@H]2NCC2CC2)cc1 (relative stereo) [Example 22, N-benzyl-N-(cyanomethyl)-4-(trans-2-((cyclopropylmethyl)amino)cyclopropyl)benzamide trifluoroacetate] | < 5.00 | < 5.00 | > 7.00
CN1CCN(c2ccc(NC(=O)c3ccc([C@@H]4C[C@H]4NCC4CC4)cc3)cc2)CC1 (relative stereo) [Example 23, 4-(trans-2-((cyclopropylmethyl)amino)cyclopropyl)-N-(4-(4-methylpiperazin-1-yl)phenyl)benzamide tris(trifluoroacetate)] | < 5.00 | < 5.00 | > 7.00
N#Cc1cccc(CNC(=O)c2ccc([C@@H]3C[C@H]3NCC3CC3)cc2)c1 (relative stereo) [Example 25, N-(3-cyanobenzyl)-4-(trans-2-((cyclopropylmethyl)amino)cyclopropyl)benzamide trifluoroacetate] | < 5.00 | < 5.00 | > 7.00
O=C(NCc1ncccc1C(F)(F)F)c1ccc([C@@H]2C[C@H]2NCC2CC2)cc1 (relative stereo) [Example 26, 4-(trans-2-((cyclopropylmethyl)amino)cyclopropyl)-N-((3-(trifluoromethyl)pyridin-2-yl)methyl)benzamide bis(trifluoroacetate)] | < 5.00 | < 5.00 | > 7.00
